# According to publication PMC10931833, “Simultaneous Purification of Human Interferon Alpha-2b and Serum Albumin Using Bioprivileged Fluorinated Ionic Liquid-Based Aqueous Biphasic Systems” (International Journal of Molecular Sciences, 2024):
# Legend:
# IFN-α2b [1] = molecular target: T1, IFN-α2b (Homo sapiens, UniProt P01563); assay: Far-UV CD secondary structure of IFN-α2b (CONTIN-LL deconvolution); assay type: physicochemical
# T1 construct: single non-glycosylated polypeptide chain with a molecular weight of 19 kDa, comprising 165 amino acids; purchased Millipore Sigma-Aldrich SRP4595-100UG; host or cells: E. coli
# Text: (§1) Circular dichroism (CD) is widely used to study the secondary structures of proteins, peptides and nucleic acids, because it requires a low concentration sample, is a nondestructive method, allows studying a wide range of variables (temperature, pH, etc.), and provides information on the effect of added ligands on protein folding and interactions.
# Circular dichroism (CD) spectra were collected in a 10 mm quartz cuvette and a Chirascan spectropolarimeter (Applied Photophysics, UK) at room temperature. All CD spectra were recorded in the far-UV range of 190 to 260 nm at scan rates of 50 nm/min, with 4 accumulations, and a response time of 3 s; CD spectra were collected. For each CD experiment, two distinct duplicates were acquired and combined. […] Spectral deconvolution was carried out with DichroWeb using the CONTIN-LL deconvolution algorithm with the SMP180 reference set.
# IFN-α2b [2] = molecular target: T1, IFN-α2b; assay: CD thermal unfolding (Tm) of IFN-α2b; assay type: physicochemical
# Procedure: The same analyses attained for 208 nm and 192 nm are illustrated in Figures S5 and S6 in the Supplementary Materials. The corresponding T m values are estimated by fitting to a sigmoid with four parameters (one-way ANOVA, significance level of 0.05) and summarized in Table S2 in the Supplementary Materials. The CD T m of 0.125 mg/mL native IFN- α 2b is in good agreement with what was previously reported. […] The estimated T m values are summarized in Table S2 in the Supplementary Materials. The same analysis is attained for 208 nm and 192 nm, as depicted in Figures S5 and S6 in the Supplementary Materials. All the CD T m results are summarized in Table S2 in the Supplementary Materials. The thermal stability assessed by far-UV CD is solely determined through the thermal decay of the alpha-helical structure.
# The same analysis was attained for 208 nm and 192 nm as illustrated in Figure S13 in the Supplementary Materials. The corresponding T m values are depicted in Table 5, and were estimated by fitting a sigmoid with four parameters (one-way ANOVA, with a significance level of 0.05).
# [3] = ref 44 (IFN-α2b), 91 (BSA), 96 (Lys); cited from earlier work
# BSA [4] = molecular target: T2, BSA (Bos taurus, UniProt P02769); assay: DSC thermal unfolding of BSA in water and aqueous solutions of ABS phase-forming components; assay type: physicochemical, bovine; details: for Tm / ΔG / ΔHcal / ΔHcal/ΔHvH / ΔHvH / ΔS: 1.0 mg/mL BSA
# T2 construct: purchased Millipore Sigma-Aldrich
# Procedure: Differential scanning calorimetry (DSC) measurements were performed with Nano DSC equipment, as detailed in Section 3, and used to determine the melting temperature (T m ) and enthalpy ( Δ H) of protein unfolding. DSC analyzes changes in the structure and stability of proteins as thermal transitions at the nanoscale. Using DSC to measure heat capacity as a function of the temperature of a well-studied protein such as BSA provides keen insights into folding and unfolding processes, as well as factors affecting stability. Due to the volume and concentration requirements of the DSC technique, and the constraints in available quantities of IFN- α 2b the DSC experiments on the ABS phase-forming components’ effect on the structural properties of proteins were attained only for BSA.
# The T m of BSA, which corresponds to the thermal unfolding transition midpoint, was measured in the absence and presence of the ABS phase-forming components at increasing concentrations (see Figure 1 and Table 2).
# BSA [5] = molecular target: T2, BSA; assay: Far-UV CD secondary structure of BSA (CONTIN-LL deconvolution); assay type: physicochemical, bovine; details: 1.0 mg/mL BSA, 25 °C
# Text: as §1, with “interactions. Far-UV (190–260 nm) CD spectroscopy was used to assess the IFN- α 2b and BSA secondary structure since the spectra are characteristic of different structural elements.” for “interactions.”
# Circular dichroism (CD) spectra were collected in a 10 mm quartz cuvette and a Chirascan spectropolarimeter (Applied Photophysics, UK) at room temperature. All CD spectra were recorded in the far-UV range of 190 to 260 nm at scan rates of 50 nm/min, with 4 accumulations, and a response time of 3 s; CD spectra were collected. For each CD experiment, two distinct duplicates were acquired and combined. BSA was fixed at 1 mg/mL, solvent concentrations ranging from 0.1 to 200 mM were used, and the spectra were translated to MRE after being expressed in terms of molar ellipticity. Spectral deconvolution was carried out with DichroWeb using the CONTIN-LL deconvolution algorithm with the SMP180 reference set.
# BSA [6] = molecular target: T2, BSA; assay: CD thermal unfolding (Tm) of BSA; assay type: physicochemical, bovine; details: 1.0 mg/ml BSA, 200 mM component aqueous solution
# Text: The thermal stability assessed by far-UV CD is solely determined through the thermal decay of the alpha-helical structure.
# FITC-BSA = molecular target: T3, FITC-BSA (Bos taurus, UniProt P02769); assay: MST binding to FITC-BSA; set-up: species or system bovine; details: 0.41 μM BSA
# T3 construct: purchased Millipore Sigma-Aldrich
# Procedure: Herein, a commercial FITC labeling kit (Section 3) was used to fluorescently tag both IFN- α 2b and BSA. Typically, in the labeling process, one amine per protein is labeled, statistically distributing the position of the dye. […] The MST assay was performed as detailed in Section 3. The solutions were prepared with a concentration of IFN- α 2b and BSA fixed at 0.41 μ M in water. For IFN- α 2b a concentration of 2.7 μ M was also prepared to compare it with previous results on MST-binding between FILs and IFN- α 2b fluorescently labeled with a different tag. In each run of MST, a maximum concentration of a ligand is selected and consecutively diluted in sixteen capillaries. […] The experimental conditions of the MST assay only allow the study of the aggregation phenomenon individually for the first CAC.
# Microscale thermophoresis (MST) measurements of the dye-labeled protein were used to conduct binding investigations. […] MST tests were conducted in a monolith NT.115 (blue/red) in accordance with the NanoTemper Technologies methodology. Medium MST power and 20% LED power (nano-blue) were set as the instrument’s default settings. For every MST measurement, a PBS buffer was used. The concentration of FITC-BSA was fixed at 0.4 μ M and FITC-IFN- α 2b was tested under two different concentrations (of 0.4 and 2.7 μ M). The ligand was used to create a set of 16 1:1 dilutions, with the starting ligand concentrations ranging from 10 to 400 mM. The typical parameters for MST traces were used for recording: […], 30 s MST power on, and 5 s MST power off. The data from three independently conducted pipetted experiments were examined using NanoTemper Technologies’ MO.Affinity Analysis software, version 2.3.
# [7] = 0.125 mg/mL IFN-α2b in water, 25 °C
# [8] = 0.099-0.12 mg/mL IFN-α2b in [N1112(OH)][C4F9SO3]-rich phase of BP#8
# T1 sequence (P01563 24-188): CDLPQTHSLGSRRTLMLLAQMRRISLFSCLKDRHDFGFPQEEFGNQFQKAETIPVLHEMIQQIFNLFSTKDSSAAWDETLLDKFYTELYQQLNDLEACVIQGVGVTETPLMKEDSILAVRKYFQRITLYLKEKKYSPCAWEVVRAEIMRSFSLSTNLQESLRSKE
# T2 sequence (P02769 25-607): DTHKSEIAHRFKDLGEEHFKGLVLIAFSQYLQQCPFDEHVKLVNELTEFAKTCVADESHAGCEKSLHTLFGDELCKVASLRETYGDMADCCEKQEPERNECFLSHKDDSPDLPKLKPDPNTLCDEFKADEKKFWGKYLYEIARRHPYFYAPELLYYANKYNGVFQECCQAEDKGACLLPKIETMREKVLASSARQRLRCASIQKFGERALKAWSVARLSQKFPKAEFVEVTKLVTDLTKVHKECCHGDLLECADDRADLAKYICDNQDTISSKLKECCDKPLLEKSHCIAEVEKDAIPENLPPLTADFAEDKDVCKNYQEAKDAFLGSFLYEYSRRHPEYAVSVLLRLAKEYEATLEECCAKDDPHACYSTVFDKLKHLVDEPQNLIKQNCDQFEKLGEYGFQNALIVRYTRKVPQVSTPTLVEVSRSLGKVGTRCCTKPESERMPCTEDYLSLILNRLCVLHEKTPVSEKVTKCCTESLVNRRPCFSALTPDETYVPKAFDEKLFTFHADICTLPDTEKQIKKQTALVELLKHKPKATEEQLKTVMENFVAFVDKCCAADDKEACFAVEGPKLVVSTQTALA
# T3 sequence (P02769 25-607): as above
compound,measurement,setting,value
Human interferon-alpha 2b [IFN-α2b],Distorted Alpha Helix,IFN-α2b [1]; [7],0.145
same,Distorted Beta Sheet,IFN-α2b [1]; [7],0.071
same,Regular Alpha Helix,IFN-α2b [1]; [7],0.289
same,Regular Beta Sheet,IFN-α2b [1]; [7],0.049
same,Turns,IFN-α2b [1]; [7],0.209
same,Unordered,IFN-α2b [1]; [7],0.238
same,predicted α-helical content,"IFN-α2b [1]; IFN-α2b in water, CD deconvolution",0.44
same,"Tm, Ellipticity 192 nm",IFN-α2b [2]; 0.125 mg/mL IFN-α2b in water,63.311 °C
same,"Tm, Ellipticity 208 nm",IFN-α2b [2]; 0.125 mg/mL IFN-α2b in water,66.156 °C
same,"Tm, Ellipticity 222 nm",IFN-α2b [2]; 0.125 mg/mL IFN-α2b in water,67.548 °C
same,"Tm, Ellipticity 192 nm",IFN-α2b [2]; [8],42.274 °C
same,"Tm, Ellipticity 208 nm",IFN-α2b [2]; [8],71.217 °C
same,"Tm, Ellipticity 222 nm",IFN-α2b [2]; [8],62.080 °C
same,iso-electric point,[3],around 5.9
"C[N+](C)(C)CCO.C[N+](C)(C)CCO.O=P([O-])(O)O.O=P([O-])(O)O [[N1112(OH)][H2PO4], Choline ((2-hydroxyethyl)trimethylammonium) dihydrogen phosphate]",Tm,BSA [4]; 0.1 mM component,75.36 °C
same,ΔG,BSA [4]; 0.1 mM component,15.2 kcal/mol
same,ΔHcal,BSA [4]; 0.1 mM component,105.9 kcal/mol
same,ΔHcal/ΔHvH,BSA [4]; 0.1 mM component,0.949
same,ΔHvH,BSA [4]; 0.1 mM component,111.6 kcal/mol
same,ΔS,BSA [4]; 0.1 mM component,1.272 KJ/(mol.K)
same,Tm,BSA [4]; 1 mM component,81.59 °C
same,ΔG,BSA [4]; 1 mM component,18.02 kcal/mol
same,ΔHcal,BSA [4]; 1 mM component,112.4 kcal/mol
same,ΔHcal/ΔHvH,BSA [4]; 1 mM component,0.613
same,ΔHvH,BSA [4]; 1 mM component,183.3 kcal/mol
same,ΔS,BSA [4]; 1 mM component,1.325 KJ/(mol.K)
same,Tm,BSA [4]; 5 mM component,80.80 °C
same,ΔG,BSA [4]; 5 mM component,25.72 kcal/mol
same,ΔHcal,BSA [4]; 5 mM component,162.2 kcal/mol
same,ΔHcal/ΔHvH,BSA [4]; 5 mM component,1.081
same,ΔHvH,BSA [4]; 5 mM component,150 kcal/mol
same,ΔS,BSA [4]; 5 mM component,1.915 KJ/(mol.K)
same,Tm,BSA [4]; 10 mM component,73.90 °C
same,ΔG,BSA [4]; 10 mM component,17.42 kcal/mol
same,ΔHcal,BSA [4]; 10 mM component,122.8 kcal/mol
same,ΔHcal/ΔHvH,BSA [4]; 10 mM component,0.998
same,ΔHvH,BSA [4]; 10 mM component,123 kcal/mol
same,ΔS,BSA [4]; 10 mM component,1.479 KJ/(mol.K)
same,effect on BSA Tm (DSC),BSA [4]; tested concentration range vs water,maintained
same,Distorted Alpha Helix,BSA [5]; 0.1 mM component,0.204
same,Distorted Beta Sheet,BSA [5]; 0.1 mM component,0.031
same,Regular Alpha Helix,BSA [5]; 0.1 mM component,0.397
same,Regular Beta Sheet,BSA [5]; 0.1 mM component,0.000
same,Turns,BSA [5]; 0.1 mM component,0.147
same,Unordered,BSA [5]; 0.1 mM component,0.221
same,Distorted Alpha Helix,BSA [5]; 1 mM component,0.210
same,Distorted Beta Sheet,BSA [5]; 1 mM component,0.023
same,Regular Alpha Helix,BSA [5]; 1 mM component,0.393
same,Regular Beta Sheet,BSA [5]; 1 mM component,0.000
same,Turns,BSA [5]; 1 mM component,0.132
same,Unordered,BSA [5]; 1 mM component,0.242
same,Distorted Alpha Helix,BSA [5]; 5 mM component,0.203
same,Distorted Beta Sheet,BSA [5]; 5 mM component,0.023
same,Regular Alpha Helix,BSA [5]; 5 mM component,0.377
same,Regular Beta Sheet,BSA [5]; 5 mM component,0.004
same,Turns,BSA [5]; 5 mM component,0.128
same,Unordered,BSA [5]; 5 mM component,0.265
same,Distorted Alpha Helix,BSA [5]; 25 mM component,0.195
same,Distorted Beta Sheet,BSA [5]; 25 mM component,0.029
same,Regular Alpha Helix,BSA [5]; 25 mM component,0.36
same,Regular Beta Sheet,BSA [5]; 25 mM component,0.015
same,Turns,BSA [5]; 25 mM component,0.136
same,Unordered,BSA [5]; 25 mM component,0.266
same,Distorted Alpha Helix,BSA [5]; 55 mM component,0.150
same,Distorted Beta Sheet,BSA [5]; 55 mM component,0.055
same,Regular Alpha Helix,BSA [5]; 55 mM component,0.242
same,Regular Beta Sheet,BSA [5]; 55 mM component,0.080
same,Turns,BSA [5]; 55 mM component,0.153
same,Unordered,BSA [5]; 55 mM component,0.320
same,Distorted Alpha Helix,BSA [5]; 90 mM component,0.171
same,Distorted Beta Sheet,BSA [5]; 90 mM component,0.044
same,Regular Alpha Helix,BSA [5]; 90 mM component,0.294
same,Regular Beta Sheet,BSA [5]; 90 mM component,0.057
same,Turns,BSA [5]; 90 mM component,0.145
same,Unordered,BSA [5]; 90 mM component,0.289
same,Distorted Alpha Helix,BSA [5]; 120 mM component,0.207
same,Distorted Beta Sheet,BSA [5]; 120 mM component,0.029
same,Regular Alpha Helix,BSA [5]; 120 mM component,0.396
same,Regular Beta Sheet,BSA [5]; 120 mM component,0.018
same,Turns,BSA [5]; 120 mM component,0.141
same,Unordered,BSA [5]; 120 mM component,0.208
same,Distorted Alpha Helix,BSA [5]; 200 mM component,0.202
same,Distorted Beta Sheet,BSA [5]; 200 mM component,0.032
same,Regular Alpha Helix,BSA [5]; 200 mM component,0.386
same,Regular Beta Sheet,BSA [5]; 200 mM component,0.021
same,Turns,BSA [5]; 200 mM component,0.146
same,Unordered,BSA [5]; 200 mM component,0.212
same,"Tm, Ellipticity 192 nm",BSA [6],65.691 °C
same,"Tm, Ellipticity 208 nm",BSA [6],76.945 °C
same,"Tm, Ellipticity 222 nm",BSA [6],66.702 °C
same,Kd,FITC-BSA; max. conc. first capillary 12.5 mM (monomer),no binding detected
same,Kd,FITC-BSA; max. conc. first capillary 400 mM (monomer),no binding detected
lysozyme,iso-electric point,[3],approximately 11.0
